Laboratory results taken from PubChem BioAssay (NCI).
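Step 1: Grow cells in 96-well plates. Step 2: Expose to compound for 48 hours at 5 concentrations. Step 3: Interpolate endpoints linearly; if unreached, use highest concentration. TGI marks complete inhibition of growth.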

Legend:
Assay in all cases: NCI tumour cell line growth inhibition, 48 h
SK-MEL-5 melanoma = system: SK-MEL-5 melanoma
A498 renal = system: A498 renal
NCI/ADR-RES ovarian = system: NCI/ADR-RES ovarian
MDA-N = system: MDA-N
OVCAR-4 ovarian = system: OVCAR-4 ovarian
MALME-3M melanoma = system: MALME-3M melanoma
RXF 393 renal = system: RXF 393 renal
M14 melanoma = system: M14 melanoma
MOLT-4 leukemia = system: MOLT-4 leukemia
HT29 colon = system: HT29 colon
NCI-H522 lung = system: NCI-H522 lung
NCI-H23 lung = system: NCI-H23 lung
SNB-75 CNS = system: SNB-75 CNS
NCI-H460 lung = system: NCI-H460 lung
SK-MEL-2 melanoma = system: SK-MEL-2 melanoma
TK-10 renal = system: TK-10 renal
OVCAR-5 ovarian = system: OVCAR-5 ovarian
SW-620 colon = system: SW-620 colon
UACC-257 melanoma = system: UACC-257 melanoma
RPMI-8226 leukemia = system: RPMI-8226 leukemia
HL-60(TB) leukemia = system: HL-60(TB) leukemia
MCF7 breast = system: MCF7 breast
BT-549 breast = system: BT-549 breast
MDA-MB-435 = system: MDA-MB-435
EKVX NSCLC = system: EKVX NSCLC
HCT-116 colon = system: HCT-116 colon
DU-145 prostate = system: DU-145 prostate
PC-3 prostate = system: PC-3 prostate
SF-295 CNS = system: SF-295 CNS
KM12 colon = system: KM12 colon
HS 578T breast = system: HS 578T breast
ACHN renal = system: ACHN renal
CAKI-1 renal = system: CAKI-1 renal
SNB-19 CNS = system: SNB-19 CNS
UACC-62 melanoma = system: UACC-62 melanoma
HOP-62 NSCLC = system: HOP-62 NSCLC
SN12C renal = system: SN12C renal
HCT-15 colon = system: HCT-15 colon
SK-MEL-28 melanoma = system: SK-MEL-28 melanoma
NCI-H226 lung = system: NCI-H226 lung
U251 CNS = system: U251 CNS
UO-31 renal = system: UO-31 renal
OVCAR-8 ovarian = system: OVCAR-8 ovarian
SF-539 CNS = system: SF-539 CNS
HOP-92 NSCLC = system: HOP-92 NSCLC
K-562 leukemia = system: K-562 leukemia
A549 NSCLC = system: A549 NSCLC
HCC-2998 colon = system: HCC-2998 colon
MDA-MB-231 breast = system: MDA-MB-231 breast
SK-OV-3 ovarian = system: SK-OV-3 ovarian
IGROV1 ovarian = system: IGROV1 ovarian
COLO 205 colon = system: COLO 205 colon
OVCAR-3 ovarian = system: OVCAR-3 ovarian
SR leukemia = system: SR leukemia
LOX IMVI melanoma = system: LOX IMVI melanoma
786-0 renal = system: 786-0 renal
SF-268 CNS = system: SF-268 CNS
CCRF-CEM leukemia = system: CCRF-CEM leukemia

CCOc1ccc2nc3cc(N=Nc4ccc(N)nc4N)ccc3c(N)c2c1
TGI (SK-MEL-5 melanoma): 55.2 µM | TGI (A498 renal): 28.1 µM | TGI (NCI/ADR-RES ovarian): > 100 µM | TGI (MDA-N): 4.99 µM | TGI (OVCAR-4 ovarian): > 78.6 µM | TGI (MALME-3M melanoma): 21 µM | TGI (RXF 393 renal): 10 µM | TGI (M14 melanoma): 51.5 µM | TGI (MOLT-4 leukemia): 4.83 µM | TGI (HT29 colon): 14 µM | TGI (NCI-H522 lung): 8.71 µM | TGI (NCI-H23 lung): 21.9 µM | TGI (SNB-75 CNS): 5.11 µM | TGI (NCI-H460 lung): 57.6 µM | TGI (SK-MEL-2 melanoma): 4.66 µM | TGI (TK-10 renal): 28.6 µM | TGI (OVCAR-5 ovarian): 41.7 µM | TGI (SW-620 colon): > 34.9 µM | TGI (UACC-257 melanoma): 57.1 µM | TGI (RPMI-8226 leukemia): 61.6 µM | TGI (HL-60(TB) leukemia): 10.1 µM | TGI (MCF7 breast): 12.2 µM | TGI (BT-549 breast): 31.4 µM | TGI (MDA-MB-435): > 100 µM | TGI (EKVX NSCLC): 45.3 µM | TGI (HCT-116 colon): 7.8 µM | TGI (DU-145 prostate): 26.8 µM | TGI (PC-3 prostate): 13.5 µM | TGI (SF-295 CNS): 63.4 µM | TGI (KM12 colon): > 100 µM | TGI (HS 578T breast): 15.2 µM | TGI (ACHN renal): 33.9 µM | TGI (CAKI-1 renal): > 100 µM | TGI (SNB-19 CNS): 3.08 µM | TGI (UACC-62 melanoma): 33.7 µM | TGI (HOP-62 NSCLC): > 100 µM | TGI (SN12C renal): 6.38 µM | TGI (HCT-15 colon): > 100 µM | TGI (SK-MEL-28 melanoma): 47.2 µM | TGI (NCI-H226 lung): 59.4 µM | TGI (U251 CNS): 1.93 µM | TGI (UO-31 renal): > 66.3 µM | TGI (OVCAR-8 ovarian): 34.3 µM | TGI (SF-539 CNS): 4.11 µM | TGI (HOP-92 NSCLC): 40.1 µM | TGI (K-562 leukemia): 1.67 µM | TGI (A549 NSCLC): > 47.9 µM | TGI (HCC-2998 colon): 4.35 µM | TGI (MDA-MB-231 breast): 2.92 µM | TGI (SK-OV-3 ovarian): > 30.3 µM | TGI (IGROV1 ovarian): > 69.6 µM

CC(=O)Nc1ccc(NNc2cc(=O)n(C)c(=O)[nH]2)cc1
TGI (COLO 205 colon): 24 µM | TGI (SK-MEL-5 melanoma): 31.2 µM | TGI (A498 renal): 49.1 µM | TGI (NCI/ADR-RES ovarian): 43.8 µM | TGI (MDA-N): 23.7 µM | TGI (OVCAR-4 ovarian): 21.9 µM | TGI (MALME-3M melanoma): 25.2 µM | TGI (M14 melanoma): 21.8 µM | TGI (MOLT-4 leukemia): > 100 µM | TGI (HT29 colon): 4.71 µM | TGI (OVCAR-3 ovarian): 6.52 µM | TGI (NCI-H23 lung): 31.1 µM | TGI (NCI-H460 lung): 45.2 µM | TGI (TK-10 renal): 39 µM | TGI (OVCAR-5 ovarian): 27.1 µM | TGI (SW-620 colon): 7.56 µM | TGI (SR leukemia): > 100 µM | TGI (UACC-257 melanoma): 26.8 µM | TGI (RPMI-8226 leukemia): 9.69 µM | TGI (HL-60(TB) leukemia): 6.98 µM | TGI (MCF7 breast): 19.5 µM | TGI (BT-549 breast): 25.7 µM | TGI (MDA-MB-435): 22.3 µM | TGI (EKVX NSCLC): 31.5 µM | TGI (LOX IMVI melanoma): 5.72 µM | TGI (HCT-116 colon): 19.3 µM | TGI (DU-145 prostate): 29.5 µM | TGI (PC-3 prostate): 12.3 µM | TGI (SF-295 CNS): 29.3 µM | TGI (KM12 colon): 24.4 µM | TGI (HS 578T breast): 53 µM | TGI (ACHN renal): 11.4 µM | TGI (SNB-19 CNS): 31.6 µM | TGI (HOP-62 NSCLC): 30.4 µM | TGI (786-0 renal): 7.63 µM | TGI (SN12C renal): 23.9 µM | TGI (HCT-15 colon): 20.6 µM | TGI (SK-MEL-28 melanoma): 24.2 µM | TGI (NCI-H226 lung): 46 µM | TGI (U251 CNS): 24 µM | TGI (UO-31 renal): 31 µM | TGI (OVCAR-8 ovarian): 45.1 µM | TGI (SF-539 CNS): 30.2 µM | TGI (HOP-92 NSCLC): 9.64 µM | TGI (K-562 leukemia): > 100 µM | TGI (A549 NSCLC): 34.7 µM | TGI (HCC-2998 colon): 24 µM | TGI (MDA-MB-231 breast): 24.8 µM | TGI (IGROV1 ovarian): 27 µM

CC(=O)OCC1OC(N2C(=S)N[C@H]([C@@H](O)[C@H](O)[C@H](O)CO)[C@H]2O)C(OC(C)=O)C(OC(C)=O)C1OC(C)=O (stereo partly specified)
TGI (COLO 205 colon): > 100 µM | TGI (SK-MEL-5 melanoma): > 100 µM | TGI (NCI/ADR-RES ovarian): > 100 µM | TGI (MDA-N): > 100 µM | TGI (OVCAR-4 ovarian): > 100 µM | TGI (RXF 393 renal): > 100 µM | TGI (M14 melanoma): > 100 µM | TGI (MOLT-4 leukemia): > 100 µM | TGI (HT29 colon): > 100 µM | TGI (OVCAR-3 ovarian): > 100 µM | TGI (NCI-H522 lung): > 100 µM | TGI (NCI-H23 lung): > 100 µM | TGI (NCI-H460 lung): > 100 µM | TGI (SK-MEL-2 melanoma): > 100 µM | TGI (OVCAR-5 ovarian): > 100 µM | TGI (SW-620 colon): > 100 µM | TGI (SR leukemia): > 100 µM | TGI (UACC-257 melanoma): > 100 µM | TGI (RPMI-8226 leukemia): > 100 µM | TGI (SF-268 CNS): > 100 µM | TGI (MCF7 breast): > 100 µM | TGI (BT-549 breast): > 100 µM | TGI (MDA-MB-435): > 100 µM | TGI (EKVX NSCLC): > 100 µM | TGI (HCT-116 colon): > 100 µM | TGI (DU-145 prostate): > 100 µM | TGI (PC-3 prostate): > 100 µM | TGI (SF-295 CNS): > 100 µM | TGI (KM12 colon): > 100 µM | TGI (HS 578T breast): > 100 µM | TGI (ACHN renal): > 100 µM | TGI (CAKI-1 renal): > 100 µM | TGI (SNB-19 CNS): > 100 µM | TGI (UACC-62 melanoma): > 100 µM | TGI (HOP-62 NSCLC): > 100 µM | TGI (786-0 renal): > 100 µM | TGI (SN12C renal): > 100 µM | TGI (HCT-15 colon): > 100 µM | TGI (SK-MEL-28 melanoma): > 100 µM | TGI (U251 CNS): > 100 µM | TGI (UO-31 renal): > 100 µM | TGI (OVCAR-8 ovarian): > 100 µM | TGI (CCRF-CEM leukemia): > 100 µM | TGI (SF-539 CNS): > 100 µM | TGI (HOP-92 NSCLC): > 100 µM | TGI (K-562 leukemia): > 100 µM | TGI (A549 NSCLC): > 100 µM | TGI (HCC-2998 colon): > 100 µM | TGI (MDA-MB-231 breast): > 100 µM | TGI (SK-OV-3 ovarian): > 100 µM | TGI (IGROV1 ovarian): > 100 µM
